Where a name gives a salt, the structure may show the parent alone.
Each compound was assayed on HIV (assay: MT4 assay: antiviral HIV activity in MT-4 cells). Settings: Human immunodeficiency virus 1, MT4, 96 h, read-out: HIV MT4 Assay IC50 (μM), HTLV-1 transformed cell line MT-4; read-out 96 hours later with cell titer glo; 10 point dose response.
Type: cell-based
Procedure: Antiviral HIV activity and cytotoxicity values for compounds of the invention from Table 1 were measured in parallel in the HTLV-1 transformed cell line MT-4 based on the method previously described (Hazen et al., 2007, In vitro antiviral activity of the novel, tyrosyl-based human immunodeficiency virus (HIV) type 1 protease inhibitor brecanavir (GW640385) in combination with other antiretrovirals and against a panel of protease inhibitor-resistant HIV (Hazen et al., “In vitro antiviral activity of the novel, tyrosyl-based human immunodeficiency virus (HIV) type 1 protease inhibitor brecanavir (GW640385) in combination with other antiretrovirals and against a panel of protease inhibitor-resistant HIV”, Antimicrob. Agents Chemother. 2007, 51: 3147-3154; and Pauwels et al., “Sensitive and rapid assay on MT-4 cells for the detection of antiviral compounds against the AIDS virus”, J. of Virological Methods 1987, 16: 171-185).
Luciferase activity was measured 96 hours later by adding a cell titer glo (Promega, Madison, Wis.). Percent inhibition of cell protection data was plotted relative to no compound control. Under the same condition, cytotoxicity of the compounds was determined using cell titer Glo™ (Promega, Madison, Wis.). IC50s were determined from a 10 point dose response curve using 3-4-fold serial dilution for each compound, which spans a concentration range>1000 fold.
These values are plotted against the molar compound concentrations using the standard four parameter logistic equation: y=((Vmax*x^n)/(K^n+x^n))+Y2
Y2=minimum y n=slope factor
Vmax=maximum y x=compound concentration [M]

SMILES | IC50 [µM]
Cc1ccc(-c2c(C(OC(C)(C)C)C(=O)O)c(C)nc3c2ccn3Cc2ccc(F)cc2)cc1 (centres unmarked) [Example 1, 2-(tert-butoxy)-2-(1-(4-fluorobenzyl)-6-methyl-4-(p-tolyl)-1H-pyrrolo[2,3-b]pyridin-5-yl)acetic acid] | 0.18
Cc1ccc(-c2c([C@H](OC(C)(C)C)C(=O)O)c(C)nc3c2ccn3Cc2ccc(F)cc2)cc1 [Example 2, (S)-2-(tert-butoxy)-2-(1-(4-fluorobenzyl)-6-methyl-4-(p-tolyl)-1H-pyrrolo[2,3-b]pyridin-5-yl)acetic acid] | 0.08
Cc1nc2c(ccn2Cc2ccc(F)c(F)c2)c(-c2ccc(Cl)cc2)c1[C@H](OC(C)(C)C)C(=O)O [Example 3, (S)-2-(tert-butoxy)-2-(4-(4-chlorophenyl)-1-(3,4-difluorobenzyl)-6-methyl-1H-pyrrolo[2,3-b]pyridin-5-yl)acetic acid] | 0.09
Cc1ccc(-c2c(C(OC(C)(C)C)C(=O)O)c(C)nc3c2ccn3Cc2ccccn2)cc1 (centres unmarked) [Example 4, 2-(tert-Butoxy)-2-(6-methyl-1-(pyridin-2-ylmethyl)-4-(p-tolyl)-1H-pyrrolo[2,3-b]pyridin-5-yl)acetic acid, Trifluoroacetic acid salt] | 1.05
Cc1ccc(-c2c(C(OC(C)(C)C)C(=O)O)c(C)nc3c2ccn3Cc2ccc(F)c(F)c2)cc1 (centres unmarked) [Example 5, 2-(tert-butoxy)-2-(1-(3,4-difluorobenzyl)-6-methyl-4-(p-tolyl)-1H-pyrrolo[2,3-b]pyridin-5-yl)acetic acid] | 0.2
Cc1ccc(-c2c(C(OC(C)(C)C)C(=O)O)c(C)nc3c2ccn3Cc2cc(F)ccc2F)cc1 (centres unmarked) [Example 6, 2-(tert-butoxy)-2-(1-(2,5-difluorobenzyl)-6-methyl-4-(p-tolyl)-1H-pyrrolo[2,3-b]pyridin-5-yl)acetic acid] | 0.182
Cc1ccc(-c2c([C@H](OC(C)(C)C)C(=O)O)c(C)nc3c2ccn3Cc2cc(F)ccc2F)cc1 [Example 7, (S)-2-(tert-butoxy)-2-(1-(2,5-difluorobenzyl)-6-methyl-4-(p-tolyl)-1H-pyrrolo[2,3-b]pyridin-5-yl)acetic acid] | 0.106
Cc1ccc(-c2c(C(OC(C)(C)C)C(=O)O)c(C)nc3c2ccn3Cc2cc(F)c(F)c(F)c2)cc1 (centres unmarked) [Example 8, 2-(tert-butoxy)-2-(6-methyl-4-(p-tolyl)-1-(3,4,5-trifluorobenzyl)-1H-pyrrolo[2,3-b]pyridin-5-yl)acetic acid] | 0.16
Cc1ccc(-c2c([C@H](OC(C)(C)C)C(=O)O)c(C)nc3c2ccn3Cc2cc(F)c(F)c(F)c2)cc1 [Example 9, (S)-2-(tert-butoxy)-2-(6-methyl-4-(p-tolyl)-1-(3,4,5-trifluorobenzyl)-1H-pyrrolo[2,3-b]pyridin-5-yl)acetic acid] | 0.04
Cc1ccc(-c2c([C@@H](OC(C)(C)C)C(=O)O)c(C)nc3c2ccn3Cc2cc(F)c(F)c(F)c2)cc1 [Example 10, (R)-2-(tert-butoxy)-2-(6-methyl-4-(p-tolyl)-1-(3,4,5-trifluorobenzyl)-1H-pyrrolo[2,3-b]pyridin-5-yl)acetic acid] | 10
Cc1nc2c(ccn2Cc2ccc(F)c(F)c2)c(-c2ccc3c(c2)CCCO3)c1C(OC(C)(C)C)C(=O)O (centres unmarked) [Example 11, 2-(tert-butoxy)-2-(4-(chroman-6-yl)-1-(3,4-difluorobenzyl)-6-methyl-1H-pyrrolo[2,3-b]pyridin-5-yl)acetic acid] | 0.09
Cc1ccc(-c2c(C(OC(C)(C)C)C(=O)O)c(C)nc3c2ccn3Cc2ccc(C)c(F)c2)cc1 (centres unmarked) [Example 12, 2-(tert-butoxy)-2-(1-(3-fluoro-4-methylbenzyl)-6-methyl-4-(p-tolyl)-1H-pyrrolo[2,3-b]pyridin-5-yl)acetic acid] | 2.1
Cc1ccc(-c2c(C(OC(C)(C)C)C(=O)O)c(C)nc3c2ccn3Cc2ccc(F)cc2Cl)cc1 (centres unmarked) [Example 13, 2-(tert-butoxy)-2-(1-(2-chloro-4-fluorobenzyl)-6-methyl-4-(p-tolyl)-1H-pyrrolo[2,3-b]pyridin-5-yl)acetic acid] | 0.43
Cc1ccc(-c2c([C@@H](OC(C)(C)C)C(=O)O)c(C)nc3c2ccn3[C@H](C)c2ccc(F)cc2)cc1 [Example 14, (R)-2-(tert-butoxy)-2-(1-((R)-1-(4-fluorophenyl)ethyl)-6-methyl-4-(p-tolyl)-1H-pyrrolo[2,3-b]pyridin-5-yl)acetic acid] | 0.71
Cc1ccc(-c2c([C@H](OC(C)(C)C)C(=O)O)c(C)nc3c2ccn3[C@H](C)c2ccc(F)cc2)cc1 [Example 15, (S)-2-(tert-butoxy)-2-(1-((R)-1-(4-fluorophenyl)ethyl)-6-methyl-4-(p-tolyl)-1H-pyrrolo[2,3-b]pyridin-5-yl)acetic acid] | 0.1
Cc1ccc(-c2c(C(OC(C)(C)C)C(=O)O)c(C)nc3c2ccn3Cc2ccc(Cl)c(F)c2)cc1 (centres unmarked) [Example 16, 2-(tert-butoxy)-2-(1-(4-chloro-3-fluorobenzyl)-6-methyl-4-(p-tolyl)-1H-pyrrolo[2,3-b]pyridin-5-yl)acetic acid] | 0.36
Cc1ccc(-c2c([C@@H](OC(C)(C)C)C(=O)O)c(C)nc3c2ccn3Cc2ccc(F)c(F)c2)cc1 [Example 17, (R)-2-(tert-butoxy)-2-(1-(3,4-difluorobenzyl)-6-methyl-4-(p-tolyl)-1H-pyrrolo[2,3-b]pyridin-5-yl)acetic acid] | 10
Cc1ccc(-c2c([C@H](OC(C)(C)C)C(=O)O)c(C)nc3c2ccn3Cc2ccc(F)c(F)c2)cc1 [Example 18, (S)-2-(tert-butoxy)-2-(1-(3,4-difluorobenzyl)-6-methyl-4-(p-tolyl)-1H-pyrrolo[2,3-b]pyridin-5-yl)acetic acid] | 0.1
Cc1ccc(-c2c(C(OC(C)(C)C)C(=O)O)c(C)nc3c2ccn3Cc2ccccc2)cc1 (centres unmarked) [Example 19, 2-(1-benzyl-6-methyl-4-(p-tolyl)-1H-pyrrolo[2,3-b]pyridin-5-yl)-2-(tert-butoxy)acetic acid] | 0.17
Cc1ccc(-c2c(C(OC(C)(C)C)C(=O)O)c(C)nc3c2ccn3Cc2cc(Cl)ccc2F)cc1 (centres unmarked) [Example 20, 2-(tert-butoxy)-2-(1-(5-chloro-2-fluorobenzyl)-6-methyl-4-(p-tolyl)-1H-pyrrolo[2,3-b]pyridin-5-yl)acetic acid] | 0.23
Cc1ccc(-c2c(C(OC(C)(C)C)C(=O)O)c(C)nc3c2ccn3Cc2cccc(F)c2F)cc1 (centres unmarked) [Example 21, 2-(tert-butoxy)-2-(1-(2,3-difluorobenzyl)-6-methyl-4-(p-tolyl)-1H-pyrrolo[2,3-b]pyridin-5-yl)acetic acid] | 0.1
Cc1ccc(-c2c(C(OC(C)(C)C)C(=O)O)c(C)nc3c2ccn3Cc2cccc(Cl)c2F)cc1 (centres unmarked) [Example 22, 2-(tert-butoxy)-2-(1-(3-chloro-2-fluorobenzyl)-6-methyl-4-(p-tolyl)-1H-pyrrolo[2,3-b]pyridin-5-yl)acetic acid] | 0.86

Same assay, conditions: read-out: HIV MT4 Assay IC50; HTLV-1 transformed cell line MT-4; read-out 96 hours later with cell titer glo; 10 point dose response; Trifluoroacetic acid salt

SMILES | IC50 [µM]
Cc1nc2c(c3c(n2C)CCCC3)c(-c2ccc3c(c2C)NCCO3)c1[C@H](OC(C)(C)C)C(=O)O (atropisomer, axis not shown; (P)) [Example 129, (2S)(P)-2-(tert-butoxy)-2-(2,9-dimethyl-4-(5-methyl-3,4-dihydro-2H-benzo[b][1,4]oxazin-6-yl)-6,7,8,9-tetrahydro-5H-pyrido[2,3-b]indol-3-yl)acetic acid, Trifluoroacetic acid salt] | 1

Source: patent US8609653B2, “Azaindole compounds and methods for treating HIV” (priority 2011, dated 2013)
